Test results from BindingDB's records for doi:10.1007/s00044-004-0120-9 (n/a, 2004).

Biological target: T1, Alpha-1A adrenergic receptor (Homo sapiens, UniProt P35348)
T1 sequence (P35348 whole entry): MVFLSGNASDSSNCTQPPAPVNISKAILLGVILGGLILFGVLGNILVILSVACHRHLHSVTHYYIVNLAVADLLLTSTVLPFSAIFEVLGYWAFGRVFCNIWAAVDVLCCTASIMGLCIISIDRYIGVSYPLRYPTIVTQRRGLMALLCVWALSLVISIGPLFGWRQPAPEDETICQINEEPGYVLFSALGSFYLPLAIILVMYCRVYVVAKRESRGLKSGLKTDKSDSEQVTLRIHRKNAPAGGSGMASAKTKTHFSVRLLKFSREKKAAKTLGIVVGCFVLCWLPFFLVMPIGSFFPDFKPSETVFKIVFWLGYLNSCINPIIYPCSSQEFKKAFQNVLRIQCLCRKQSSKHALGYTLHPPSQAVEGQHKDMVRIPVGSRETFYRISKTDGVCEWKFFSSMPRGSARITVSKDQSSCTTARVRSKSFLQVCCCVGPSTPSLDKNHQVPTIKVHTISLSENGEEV
Test: Binding affinity to Homo sapiens (human) alpha1A adrenergic receptor

SMILES: CCC1=C(C(N)=O)C(c2ccc([N+](=O)[O-])cc2)C(C(=O)NCCCN2CCC(c3ccccc3)(c3ccccc3)CC2)=C(CC)N1 (stereo unspecified)
- Ki: 1.1 nM
